Reference: patent US11655308B2, “HM-3 fusion protein and application thereof” (TASLY BIOPHARMACEUTICALS CO., LTD., priority 2017, dated 2023)
Where two headings read alike, the source gives them in different places.

Tests used:
human macrophage U937 = test: TNF-α production by LPS-induced human macrophage U937 (ELISA); format: cell-based
Description: Experimental method: Human macrophage U937 was cultured in RPMI-1640 medium containing 10% fetal bovine serum and double antibodies in a constant temperature incubator at 37° C. under the condition of 5% CO2, and the medium was replaced every 2 days. U937 cells in the logarithmic phase were collected, resuspended and adjusted to the concentration of 5×10^5/mL. 100 μL of cells was added to each well of a 96-well plate overnight and induced with LPS (1 μg/mL) in the following day, where n=3. At the same time, the cells were treated with agents, and respectively divided into a positive control group adalimumab, an HM-3 polypeptide group, an mPEG-SC-HM-3 polypeptide group, an HM-3 fusion protein (TSL-1, TSL-2, TSL-3, TSL-4) group, and the specific dosing scheme was shown in Table 5.
48 h after the agents worked, culture medium was collected and centrifuged, and supernatant was taken to measure the content of TNF-α therein by ELISA. Test results were expressed as mean±SD, and statistical T test was performed. *P<0.05 indicates significant difference, **P<0.01 indicates extremely significant difference. Based upon the results, the efficacy of the HM-3 fusion protein against rheumatoid arthritis was screened.

[1] = rat, in vivo, sc
Description: (1) 18 SD rats (half male and half female) were purchased and fed for one week.
(2) Rats were divided into 3 groups, half male and half female, and weight of rats were recorded respectively.
The blood was centrifuged at 12000 rpm/min to take 200 μL of supernatant, then the supernatant was diluted with PBS solution according to a ratio of 1:3, and finally placed in an EP tube and stored in a −80° C. refrigerator.
(4) Biological samples were measured by double-antibody sandwich ELISA.
(1) Coating, HM-3 monoclonal antibody was diluted with a coating buffer (CBS) in certain concentration, added to an ELISA plate and coated overnight.
(2) Plate washing, the coating buffer was discarded, and the plate was washed by PBST for 3 times, and then dried by patting.
(3) Sealing, a blocking buffer was added for sealing at 37.5° C., the plate washing process was repeated and the plate was dried by patting.
(4) Addition of samples to be measured, the samples to be measured were added to the ELISA plate with multiple wells, and then incubated at 37.5° C.; the plate washing process was repeated and the plate was dried by patting.
(5) Addition of a secondary antibody, the secondary antibody diluted proportionally was added for incubation at 37.5° C. The plate washing process was repeated and the plate was dried by patting.
(6) Addition of the enzyme-labeled secondary antibody for reaction, the HRP-labeled secondary antibody which was diluted by 5% skim milk powder solution according to certain proportion was added for incubation at 37.5° C. The plate washing process was repeated and the plate was dried by patting.
(7) Addition of a substrate, a TMB substrate in certain volume L was added for reaction in the dark.
(8) Termination of the reaction, a certain amount of stop buffer was added to terminate the reaction.
(9) Detection, read OD450 nm with a microplate reader.

type-II CIA mice = test: Chronic inflammation model of type-II CIA in mice; format: in vivo, Balb/c mice; details: for ankle width / arthritis scoring / paw circumference / weight of mice / paw weight / spleen weight: day 60; for ankle width: model G2 4.83±0.20; for arthritis scoring: model G2 11.5±1.7; for paw circumference: model G2 13.62; for weight of mice: model G2 19.5±1.6; for paw weight: model G2 219.3±20.6; for spleen weight: model G2 114.6±14.5
Description: Experimental method: Balb/c mice were taken and immunized for the first time. The concentration of type-II bovine collagen was 4 mg/mL. On the day of the experiment (day 0), complete Freund's adjuvant (CFA) and CII solution were mixed evenly in equal volume and emulsified. Excepting for the normal control group of Balb/c mice, mice in each group were sensitized by intracutaneous injection of 50 μL emulsifier at the end of tails. 21 days later, mice were re-immunized with the same dose of emulsifier at the end of tails, and incomplete Freund's adjuvant (IFA) served as an adjuvant at this time. Redness and swelling other arthritic symptoms appeared on toe joints of mice models approximately on the 29th day of the experiment, indicating successful modeling.
Animals in the modeling group on the 30th day of the experiment were randomly divided into:
There were 12 groups in total, and there were 8 pieces of mice in remaining each group excepting for 12 pieces in G1 (normal control group) and G2 (model group).
Measurement of mice weight: mice were weighed by an electronic balance every two days.
Measurement of sole thickness: the thickness of left, right and hind soles for each mouse was measured by a vernier caliper every two days.
Measurement of ankle joint width: the width of left and right ankle joints for each mouse was measured by vernier caliper every two days.
Arthritis index (AI) score: the severity of arthritis for each mouse was evaluated by a paw joint scoring method. 0: no redness and swelling; 1: redness and swelling of little toe joints; 2: redness and swelling of toe joints and toes; 3: redness and swelling of the portion below ankle joints; 4: redness and swelling of toe joints, toes and ankle joints. Scoring was performed once every two days until the end of the experiment.
Blood was collected from the orbit and serum was separated. After mice were killed by cervical dislocation, spleen and thymus were separated and weighed to calculate a spleen coefficient, and then the spleen and thymus were fixed in formalin stationary liquid.

[2] = system: transgenic blood vessel fluorescent zebrafish; test: In vivo anti-angiogenesis in zebrafish (SIVs area); design: area of SIVs: unit not given here; details: for inhibition rate of angiogenesis / area of SIVs: 24 h; for area of SIVs: normal control group 53193
Description: Experimental method: transgenic blood vessel fluorescent zebrafish was randomly selected and put into a six-well plate with 30 fish per well, and intravenously injected HM-3 polypeptide, TSL-1 fusion protein, TSL-2 fusion protein, TSL-3 fusion protein and TSL-4 fusion protein respectively in accordance with the dosage of 20 ng/tail and 66 ng/tail; the dosage was […] in Avastin positive control and the injection volume was 20 nL/tail; the zebrafish injected 20 nL/tail of buffer solution served as a solvent control group, and the zebrafish without any treatment served as a normal control group. 10 pieces of zebrafish were randomly selected from each group after processed for 24 h to observe the intestinal vessels of the transgenic zebrafish by a fluorescence microscope, as well as to take and maintain images. Image analysis was performed by Nikon MS-Elements D 3.10 to calculate the area (S) of SIVs (subintestinal vessel, SIV). The calculation formula of angiogenesis inhibition rate was as follows: Angiogenesis inhibition rate (%)=(1−S(Test sample group)/S(Normal control group))×100%
Statistical analysis was performed by variance analysis and Dunnett's T-test and the results were expressed as Mean±SD, where p<0.05 indicates a significant difference.

[3] = G6 TSL-4 50 mg/kg SC 1 time/5 d, 3 times
[4] = G7 TSL-4 25 mg/kg SC 1 time/5 d, 3 times
[5] = G8 TSL-4 25 mg/kg SC 1 time/7 d, 2 times
[6] = G10 TSL-4 12.5 mg/kg SC 1 time/5 d, 3 times

For mIgG4-Fc-(GGGGS)3-HM-3 [TSL-4], the “inhibitory effect on TNF-α compared with HM-3 and mPEG-SC-HM-3” value (human macrophage U937) was “much better than that of polypeptide HM-3 and mPEG-SC-HM-3”, the “TNF-α content in cell supernatant” value (human macrophage U937; 9 μM, LPS 1 μg/mL, 48 h, negative group 77.6±19.6) was 22.2 ± 8.9 pg/mL and the Vd/F ([1]; 4.17 mg/kg) was 4.200 L/kg. It also gave a Vd/F ([1]; 12.5 mg/kg) of 3.177 L/kg, a Vd/F ([1]; 37.5 mg/kg) of 4.967 L/kg and an ankle width (type-II CIA mice; [3]) of 3.96±0.09 mm. It also gave an arthritis scoring (type-II CIA mice; [3]) of 6.5±1.1, a paw circumference (type-II CIA mice; [3]) of 10.80±0.26 mm and a weight of mice (type-II CIA mice; [3]) of 20.8 ± 1.8 g. It also gave a paw weight (type-II CIA mice; [3]) of 176.2 ± 8.9 mg, an ankle width (type-II CIA mice; [4]) of 3.98±0.08 mm and an arthritis scoring (type-II CIA mice; [4]) of 6.6±1.1. The paw circumference (type-II CIA mice; [4]) was 10.87±0.14 mm, the weight of mice (type-II CIA mice; [4]) was 21.1 ± 1.6 g and the spleen weight (type-II CIA mice; [4]) was 95.1 ± 9.5 mg. It also gave a paw weight (type-II CIA mice; [4]) of 176.4 ± 9.7 mg, an ankle width (type-II CIA mice; [5]) of 4.00±0.16 mm and an arthritis scoring (type-II CIA mice; [5]) of 7.1±0.6. It also gave a paw circumference (type-II CIA mice; [5]) of 10.97±0.32 mm, a weight of mice (type-II CIA mice; [5]) of 20.8 ± 1.7 g and a spleen weight (type-II CIA mice; [5]) of 95.8 ± 11.4 mg. It also gave a paw weight (type-II CIA mice; [5]) of 177.1 ± 7.8 mg, an ankle width (type-II CIA mice; [6]) of 4.26±0.13 mm and an arthritis scoring (type-II CIA mice; [6]) of 8.6±1.8. It also gave a paw circumference (type-II CIA mice; [6]) of 11.64±0.19 mm, a weight of mice (type-II CIA mice; [6]) of 21.5 ± 1.5 g and a spleen weight (type-II CIA mice; [6]) of 97.5 ± 5.1 mg. For the same substance, the “therapeutic effect compared with group G3 (positive Adalimumab group)” value (type-II CIA mice; groups G4 (HM-3), G10 (TSL-4 12.5 mg/kg once for 5 days, 3 times)) was “slightly lower than that of the group G3”, the “therapeutic effect compared with group G3 (positive Adalimumab group)” value (type-II CIA mice; groups G5 (mPEG-SC-HM-3), G6, G7, G8 (TSL-4)) was “better than the group G3” and the “inhibiting effect on angiogenesis” value ([2]; 20 ng/tail) was “significant inhibitory effect”. The “inhibition rate of angiogenesis” value ([2]; 20 ng/tail iv) was 36%, the “area of SIVs” value ([2]; 20 ng/tail iv) was 33869 and the “inhibition rate of angiogenesis” value ([2]; 66 ng/tail iv) was 47%. The “area of SIVs” value ([2]; 66 ng/tail iv) was 28297.
